Consider one compound from publication PMC7932080, “In vitro study of Hesperetin and Hesperidin as inhibitors of zika and chikungunya virus proteases” (PLoS ONE, 2021).

The test system of one experiment is CHIKV. To be noted: cited from earlier work.
A further experiment concerns ZIKV. The experiment is described as follows: Plaque reduction antiviral assay in Vero cells. To be noted: ~50 PFU, two inhibitor concentrations.
In a further experiment the target is CHIKV nsP2^pro (Chikungunya virus, UniProt Q8JUX6). Nature of the experiment: Intrinsic Trp fluorescence titration (KD). To be noted: Trp fluorescence quenching, ± STD.
Sequence of CHIKV nsP2^pro (Q8JUX6 1001-1333): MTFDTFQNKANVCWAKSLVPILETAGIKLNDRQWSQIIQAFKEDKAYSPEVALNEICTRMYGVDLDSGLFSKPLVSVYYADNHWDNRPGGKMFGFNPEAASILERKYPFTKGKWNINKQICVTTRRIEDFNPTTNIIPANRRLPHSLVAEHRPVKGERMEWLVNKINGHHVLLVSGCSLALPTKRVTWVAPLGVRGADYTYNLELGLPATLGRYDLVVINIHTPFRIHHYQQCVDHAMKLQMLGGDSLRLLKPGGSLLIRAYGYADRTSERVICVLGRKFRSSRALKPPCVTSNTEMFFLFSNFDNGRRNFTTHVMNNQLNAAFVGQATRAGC

In general, Kd refers to the free concentration of one partner at which half of the binding sites on the other are occupied at equilibrium, for simple one-to-one binding. Low values mean tighter binding, high ones weaker binding. For the compound `COc1ccc(C2CC(=O)c3c(O)cc(O)cc3O2)cc1O` (stereo not drawn) [HST, 3’,5,7-trihydroxy-4’-methoxyflavanone], the “Antiviral activity in anti-entry, anti-adsorption, direct virucidal assays” value in the experiment on CHIKV is recorded as “no antiviral activity”. In addition, the “Antiviral activity, plaque reduction” value in the experiment on ZIKV is reported as “no antiviral activities”. On CHIKV nsP2^pro, this compound had a Kd of 31.6 ± 2.5 µM.
